Measured values as given in publication PMC4205289, “Triptolide inhibits human immunodeficiency virus type 1 replication by promoting proteasomal degradation of Tat protein” (Retrovirology, 2014).

System: HIV-1 molecular clone pNL4-3.Luc.R-E-
Test: Transient gene expression assay, pNL4-3.Luc.R-E- transfected into Jurkat cells
Assay type: cell-based
Conditions: 24 h, 118-D-24 50 μM, flavopiridol 20 nM, triptolide 0.2 ~ 5 nM
Procedure: Figure 3 Triptolide inhibits HIV-1 transcription. (A) Time-of-addition analysis. TZM-bl cells were infected with HIV-1 (MOI = 0.5, strain NL4-3), and the virus inoculum was removed after 1 h of absorption. Test compounds (dextran sulfate at 10 μg/mL, zidovudine at 1 μM and triptolide at 5 nM) were added at the indicated time points after infection. Reporter signal was monitored at 48 h post-infection as a measure of viral replication. (B) The effect of triptolide on HIV-1 proviral DNA formation. Jurkat cells were infected with HIV-1 (MOI = 0.5, strain NL4-3) in the presence of the test compounds (INI 118-D-24, 50 μM; flavopiridol, 20 nM; and triptolide, 5 nM). Proviral DNA synthesis was determined by nested PCR analysis at 12 h post-infection. (C) The effect of triptolide on HIV-1 mRNA synthesis. Jurkat cells were infected with HIV-1(MOI = 0.5, strain NL4-3) in the presence of the test compounds (INI 118-D-24, 50 μM; flavopiridol, 20 nM; triptolide, 5 nM). Viral mRNA (the Gag region) content was determined by reverse-transcription PCR analysis 12 h post-infection. (D) Inhibition of luciferase expression encoded in pNL4-3.Luc.R-E- by tiptolide. […]
To further confirm that triptolide interferes with HIV-1 transcription, a transient gene expression assay was performed. […] At 24 h after transfection, viral gene transcription (indicated by luciferase activity) was determined. […]

Structure (SMILES): CC(C)[C@]12O[C@H]1[C@@H]1O[C@]13[C@]1(O[C@H]1C[C@H]1C4=C(CC[C@@]13C)C(=O)OC4)[C@@H]2O [triptolide]
- effect on luciferase expression from transfected pNL4-3.Luc.R-E-: inhibited reporter expression in a dose-dependent manner
